US20100310688A1, “ACACIA EXTRACTS AND THEIR COMPOUNDS ON INHIBITION OF XANTHINE OXIDASE” (NATIONAL TAIWAN UNIVERSITY, priority 2009, published 2010)

Experiments:
[1] = target: T1, xanthine oxidase (Homo sapiens, UniProt P47989); assay: Xanthine oxidase inhibition assay (uric acid formation, OD 295 nm); format: biochemical; conditions: for EC50: isolated major compounds, read-out: EC50 of inhibitory activity on xanthine oxidase; for xanthine oxidase inhibitory activity as fold of allopurinol: relative to allopurinol EC50
T1 sequence (P47989 whole entry, species assumed): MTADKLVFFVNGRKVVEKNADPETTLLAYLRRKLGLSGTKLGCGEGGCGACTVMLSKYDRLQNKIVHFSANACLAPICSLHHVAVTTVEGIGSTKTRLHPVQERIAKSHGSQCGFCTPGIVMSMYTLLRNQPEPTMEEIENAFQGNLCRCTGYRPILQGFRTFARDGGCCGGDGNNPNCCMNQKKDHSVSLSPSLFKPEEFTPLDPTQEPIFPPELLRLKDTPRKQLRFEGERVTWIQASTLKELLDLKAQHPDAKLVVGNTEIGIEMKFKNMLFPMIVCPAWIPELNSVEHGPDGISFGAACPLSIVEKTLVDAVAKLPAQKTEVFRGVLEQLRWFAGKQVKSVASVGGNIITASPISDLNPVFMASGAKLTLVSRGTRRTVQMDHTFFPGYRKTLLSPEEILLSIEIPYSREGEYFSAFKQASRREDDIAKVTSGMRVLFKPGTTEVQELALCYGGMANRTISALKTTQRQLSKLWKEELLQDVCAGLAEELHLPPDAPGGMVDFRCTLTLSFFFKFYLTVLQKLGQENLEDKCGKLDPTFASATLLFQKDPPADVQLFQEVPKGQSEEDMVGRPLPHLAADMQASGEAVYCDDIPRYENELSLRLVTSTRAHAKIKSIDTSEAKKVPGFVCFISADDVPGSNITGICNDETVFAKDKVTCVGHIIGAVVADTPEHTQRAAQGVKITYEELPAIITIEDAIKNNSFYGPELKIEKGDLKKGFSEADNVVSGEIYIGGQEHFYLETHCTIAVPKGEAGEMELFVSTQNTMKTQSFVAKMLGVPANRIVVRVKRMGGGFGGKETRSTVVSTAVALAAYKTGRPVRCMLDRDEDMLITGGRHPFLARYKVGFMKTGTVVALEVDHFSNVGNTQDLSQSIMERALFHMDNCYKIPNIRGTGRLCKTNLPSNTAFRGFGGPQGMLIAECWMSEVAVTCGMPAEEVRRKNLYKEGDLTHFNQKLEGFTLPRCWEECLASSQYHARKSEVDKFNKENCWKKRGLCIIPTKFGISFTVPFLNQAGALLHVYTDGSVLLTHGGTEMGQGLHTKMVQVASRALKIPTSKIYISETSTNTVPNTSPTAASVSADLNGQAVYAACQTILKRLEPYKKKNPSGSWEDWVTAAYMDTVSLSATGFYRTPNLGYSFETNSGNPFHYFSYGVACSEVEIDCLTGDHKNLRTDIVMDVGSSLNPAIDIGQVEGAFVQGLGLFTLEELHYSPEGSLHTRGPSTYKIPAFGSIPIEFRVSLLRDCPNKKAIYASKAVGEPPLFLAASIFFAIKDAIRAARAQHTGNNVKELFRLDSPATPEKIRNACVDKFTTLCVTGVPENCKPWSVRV
Procedure: Various parts of Acacia confusa were cold extracted by ethanol for 3 times, 7 days for each time. The extraction solution was vacuum filtered with Whatman #1 filter paper to remove impurities. The filtered extraction solution was concentrated by rotatory vacuum evaporator and lyophilized by a lyophilizer for xanthine oxidase inhibition assay. This assay was detecting xanthine derived uric acid, which was catalyzed by xanthine oxidase, at specific absorbance of UV 295 nm. Therefore, 2 μL of various concentrations of sample were mixed with 798 μL of sodium pyrophosphate buffer (pH 7.5) and 0.1 U of xanthine oxidase for 5 min at 37° C. 200 μL of 0.6 mM xanthine were added and vortex to mix thoroughly, and measured OD 295 nm absorbance by UV/visible light spectrophotometer. Finally, xanthine oxidase inhibitory rate of extracts (%) was calculated.

[2] = target: T1, xanthine oxidase; assay: Inhibition mode determination by Lineweaver-Burk plot; format: biochemical; conditions: 0.3, 0.4 or 0.6 mM substrate
Procedure: 798 μL of 0.1 unit xanthine oxidase in 200 mM sodium pyrophosphate/sodium chloride buffer (soudium pyrophosphate/HCl, pH 7.5) were mixed with 2 μL of DMSO dissolved melanoxetin, 7,8,3′,4′-tetrahydroxyflavon or okanin in 96-well plate at 37° C. for 5 minutes. 0.3, 0.4, or 0.6 mM substrate dissolved in double distilled water were added to start the reaction. OD 295 nm absorbance was detected every one minute by ELISA reader for total eight minutes at ambient temperature. Excel software was used for analyzing the result of enzyme.

Which results are given for `Oc1ncnc2[nH]ncc12` [allopurinol, reference compound]?
inhibition at 5 µg/mL ([1]; at concentration of 5 μg/mL): 78%; inhibition mode on xanthine oxidase (Lineweaver-Burk plot) [2]: competitive inhibition mode

With `O=c1c(O)c(-c2ccc(O)c(O)c2)oc2c(O)c(O)ccc12` [melanoxetin, 3,7,8,3′,4′-pentahydroxyflavone] as the compound, how does the EC50 [1] read?
Its EC50 is 274 nM.

What about the “xanthine oxidase inhibitory activity as fold of allopurinol” value [1] of the same compound?
Its value is 17 fold.

And the “inhibition mode on xanthine oxidase (Lineweaver-Burk plot)” value (from here on “inhibition mode on xanthine oxidase”) [2]?
The value was “competitive inhibition mode”.

For `O=c1cc(-c2ccc(O)c(O)c2)oc2c(O)c(O)ccc12` [7,8,3′,4′-tetrahydroxyflavon], which “inhibition mode on xanthine oxidase” value [2] is on record?
The value was “competitive inhibition mode”.

`O=C(/C=C/c1ccc(O)c(O)c1)c1ccc(O)c(O)c1O` [okanin, 3,4,2′,3′,4′-pentahydroxy trans-chalcone] was tested. Which EC50 [1] did it give?
Its EC50 is 74 nM.

And the “xanthine oxidase inhibitory activity as fold of allopurinol” value [1]?
The value was 63 fold.

And the “inhibition mode on xanthine oxidase” value [2]?
Its value is “non-competitive inhibition mode”.
